Literature values, collected in patent publication US6548637B1, “Ligands for opioid receptors” (Sepracor, Inc., priority 1998, dated 2003).

Tested on: mice
Conditions: intracerebroventricular injections to mice

Row | SMILES | ED50 (analgesia) [µg]
1 | NC(=O)[C@H](Cc1ccccc1)NC(=O)[C@H](Cc1c[nH]c2ccccc12)NC(=O)C1CCCN1C(=O)[C@@H](N)Cc1ccc(O)cc1 (stereo partly drawn) [Example 1, Tyr-Pro-Trp-Phe-NH2] | 8.4
2 | NC(=O)C(Cc1ccccc1)NC(=O)[C@H](Cc1ccccc1)NC(=O)C1CCCN1C(=O)[C@@H](N)Cc1ccc(O)cc1 (stereo partly drawn) [Example 2, Tyr-Pro-Phe-Phe-NH2] | 2.9
